Test results published in patent publication US9295732B2, “Conjugated TLR7 and/or TLR8 and TLR2 polycationic agonists” (CAYLA, priority 2013, dated 2016).
Values joined by “and” are separate entries in the source; they are usually repeats but may differ in a detail not shown here. Equal values may be shown once.

How the values were obtained:
[1] = system: endogenous TLR2 and TLR7 in RAW-Blue™ Cells; assay: RAW-Blue Cells NF-κB/AP-1 SEAP reporter assay; assay type: cell-based, mouse; details: 24 hours, OD at 655 nm, FIG. 4
Protocol: (§1) Cell-based assays were carried out using TLR7 and TLR2 reporter cell lines (InvivoGen). The reporter cell lines are engineered HEK293 cells, a human embryonic kidney cell line (ATCC, CRL-1573) that stably express either murine TLR7 (HEK-Blue™ mTLR7) or human TLR7 (HEK-Blue™ hTLR7) or human TLR2 (HEK-Blue™ hTLR2) with an NF-κB-inducible secreted embryonic alkaline phosphatase (SEAP) as the reporter gene. The SEAP reporter gene is under the control of the NF-κB and AP-1-inducible promoter, which, upon treatment with a corresponding TLR ligand and activation of NF-κB and AP-1, induces the production of SEAP. Detection of SEAP is measured following culturing cells in HEK-Blue™ Detection media (InvivoGen). HEK-Blue™ Detection contains a SEAP substrate that when hydrolysed by SEAP produces a colorimetric change allowing for detection of SEAP as the protein is secreted. […] These assays were carried out using RAW-Blue™ Cells (InvivoGen), derived from RAW 264.7 mouse leukemic monocyte macrophage cell line (ATCC, CRL 2278) stably overexpressing a NF-B/AP-1 inducible SEAP reporter constructs.
(§2) To perform the assay, cells were seeded on 96 well microliter plates at 50,000 or 100,000 cells per well for HEK-Blue™ Cells and RAW-Blue™ Cells respectively, and cultured at 37° C. in the presence of the conjugated compounds The TLR7-TLR2 polyamine molecules were prepared as follows: First, stock solutions of the conjugated compounds of the invention were prepared in ethanol or water to a concentration of 10 mg/ml.
(§3) The working dilutions of the conjugated TLR7-TLR2 polyamine agonists made up in water or PBS were directly added to the reporter cell lines at a final concentration ranging from 10 μg/mL to 10 pg/ml and incubated at 37° C. for 24 hours. After 24 hours of incubation, the effect on reporter gene activity was determined by reading the OD at 655 nm using iMark™ Microplate Reader (BIO-RAD).

[2] = molecular target: T1, murine TLR7 (Mus musculus, UniProt P58681); assay: HEK-Blue mTLR7 NF-κB/AP-1 SEAP reporter assay; assay type: cell-based; details: HEK-Blue mTLR7 cells, 10 μg/mL to 10 pg/ml, 24 hours, OD at 655 nm, FIG. 2
T1 construct: host or cells: HEK293 (HEK-Blue™ mTLR7)
T1 sequence (P58681 27-1050): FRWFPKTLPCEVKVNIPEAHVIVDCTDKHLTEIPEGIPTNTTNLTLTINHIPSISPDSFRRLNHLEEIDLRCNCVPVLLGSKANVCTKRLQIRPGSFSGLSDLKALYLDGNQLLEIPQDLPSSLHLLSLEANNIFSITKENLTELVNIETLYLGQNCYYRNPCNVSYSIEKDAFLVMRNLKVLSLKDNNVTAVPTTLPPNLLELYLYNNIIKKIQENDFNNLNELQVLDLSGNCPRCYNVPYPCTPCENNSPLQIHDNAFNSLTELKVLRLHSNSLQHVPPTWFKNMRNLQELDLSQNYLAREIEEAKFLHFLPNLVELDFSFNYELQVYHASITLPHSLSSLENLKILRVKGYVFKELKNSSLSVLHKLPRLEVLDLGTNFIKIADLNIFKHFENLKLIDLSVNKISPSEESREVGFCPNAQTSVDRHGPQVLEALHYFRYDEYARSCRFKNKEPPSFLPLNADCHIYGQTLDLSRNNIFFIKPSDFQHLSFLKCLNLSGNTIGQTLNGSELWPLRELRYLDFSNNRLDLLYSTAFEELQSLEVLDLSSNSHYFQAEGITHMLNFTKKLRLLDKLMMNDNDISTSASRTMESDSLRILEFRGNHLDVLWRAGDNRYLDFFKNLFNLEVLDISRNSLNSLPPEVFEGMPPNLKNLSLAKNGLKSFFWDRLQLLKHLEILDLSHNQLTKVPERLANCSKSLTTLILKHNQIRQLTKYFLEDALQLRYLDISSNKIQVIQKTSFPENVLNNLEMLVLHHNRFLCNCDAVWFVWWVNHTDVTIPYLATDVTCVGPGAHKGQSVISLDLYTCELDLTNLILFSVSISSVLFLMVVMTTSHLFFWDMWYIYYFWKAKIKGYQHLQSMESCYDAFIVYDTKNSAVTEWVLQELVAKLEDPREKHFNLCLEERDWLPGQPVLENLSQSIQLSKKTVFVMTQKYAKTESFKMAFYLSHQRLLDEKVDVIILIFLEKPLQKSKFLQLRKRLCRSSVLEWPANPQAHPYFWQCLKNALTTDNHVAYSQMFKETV
Protocol: as §1, §2, §3

[3] = Nanoparticle (lipoplex) size by dynamic light scattering; details: 25° C., triplicate;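 further: lipoplexes of TLR7-TLR2 polyamine conjugates with plasmid DNA, formed over 30 min at room temperature in serum-free medium or 5% glucose, diameter in nm, PDI dimensionless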
[4] = molecular target: T2, human TLR2 (Homo sapiens, UniProt O60603); assay: HEK-Blue hTLR2 NF-κB/AP-1 SEAP reporter assay; assay type: cell-based; details: HEK-Blue hTLR2 cells, 10 μg/mL to 10 pg/ml, 24 hours, OD at 655 nm, FIG. 3
T2 construct: host or cells: HEK293 (HEK-Blue™ hTLR2)
Protocol: as §1, §2, §3

[5] = system: plasmid DNA (pDNA); assay: Gel shift (mobility shift) assay of pDNA complexation; assay type: binding; details: pDNA:molecule ratio 3:24 (w:w), 0.8% agarose gel, compared to pDNA alone
Protocol: Then, 10 μl of pDNA:TLR7-TLR2 polyamine molecule complexes and 2 μl of charge buffer were mixed and loaded into wells of a 0.8% agarose gel. Samples were migrated through the gel in TAE buffer under 135 voltage for 21 mins and the migration of the pDNA was visualized following ethidium bromide staining under UV light. The ability of TLR7-TLR2 polyamine molecules to complex/associate with the pDNA was identified by partial or complete retardation of the pDNA migration toward the anode in the gel compared to pDNA alone. […] Ethidium bromide intercalation of pDNA in complex with molecules allowed visualization of complexed pDNA as a smear in the wells of the gel.

[6] = molecular target: T3, human TLR7 (Homo sapiens, UniProt Q9NYK1); assay: HEK-Blue hTLR7 NF-κB/AP-1 SEAP reporter assay; assay type: cell-based; details: HEK-Blue hTLR7 cells, 10 μg/mL to 10 pg/ml, 24 hours, OD at 655 nm, FIG. 1
T3 construct: host or cells: HEK293 (HEK-Blue™ hTLR7)
T3 sequence (Q9NYK1 27-1049): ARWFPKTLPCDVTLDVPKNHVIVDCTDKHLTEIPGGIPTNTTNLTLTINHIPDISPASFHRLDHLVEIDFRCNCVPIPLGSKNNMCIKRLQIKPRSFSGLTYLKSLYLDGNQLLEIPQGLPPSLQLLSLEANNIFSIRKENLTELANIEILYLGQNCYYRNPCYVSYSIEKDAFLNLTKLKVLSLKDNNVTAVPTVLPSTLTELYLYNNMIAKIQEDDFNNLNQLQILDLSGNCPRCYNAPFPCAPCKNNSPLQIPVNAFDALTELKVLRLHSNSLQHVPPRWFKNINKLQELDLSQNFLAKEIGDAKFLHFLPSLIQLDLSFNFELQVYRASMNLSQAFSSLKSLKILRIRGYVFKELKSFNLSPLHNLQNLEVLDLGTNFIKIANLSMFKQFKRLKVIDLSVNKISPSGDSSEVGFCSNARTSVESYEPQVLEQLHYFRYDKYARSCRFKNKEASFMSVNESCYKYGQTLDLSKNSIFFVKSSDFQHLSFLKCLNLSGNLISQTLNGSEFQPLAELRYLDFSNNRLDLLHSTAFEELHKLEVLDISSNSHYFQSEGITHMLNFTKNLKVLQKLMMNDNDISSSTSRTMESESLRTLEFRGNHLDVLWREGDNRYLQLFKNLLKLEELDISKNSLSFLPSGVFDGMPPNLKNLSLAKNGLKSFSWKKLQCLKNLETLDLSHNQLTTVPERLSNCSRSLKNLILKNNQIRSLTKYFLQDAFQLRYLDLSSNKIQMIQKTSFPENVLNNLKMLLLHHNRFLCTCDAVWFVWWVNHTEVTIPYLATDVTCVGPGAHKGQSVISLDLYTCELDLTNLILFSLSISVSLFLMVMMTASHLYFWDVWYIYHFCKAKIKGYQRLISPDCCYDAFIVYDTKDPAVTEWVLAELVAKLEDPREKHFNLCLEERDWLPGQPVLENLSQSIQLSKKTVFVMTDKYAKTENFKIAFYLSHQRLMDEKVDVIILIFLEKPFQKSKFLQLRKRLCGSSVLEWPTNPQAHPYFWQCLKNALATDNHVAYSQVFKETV
Protocol: as §1, §2, §3

[7] = system: B16-F1 tumor; assay: In vivo mouse B16-F1 tumor model, molecule alone; parameters: species or system C57BL/6 mice; details: by day 42, intra-tumoral injections, FIG. 8B
Protocol: Measurements were performed under gas anesthesia.
The second group received intra-tumoral injections of CL413 molecule alone (a TLR7-TLR2 Pam2CSK4-based molecule). Third and forth groups received intra-tumoral injections of the TLR2 ligand, Pam2CSK4 alone, and the TLR7 ligand alone, respectively. A fifth group received a combined treatment of Pam2CSK4 and TLR7 ligand, in solution at the equivalent molecule quantity of the respective TLR2 and TLR7 moieties in CL413 (in 100 μl Bionolyte G5® with Pluronic® F-68 2%) for a total of 3 injections.

T2 sequence (O60603 21-784): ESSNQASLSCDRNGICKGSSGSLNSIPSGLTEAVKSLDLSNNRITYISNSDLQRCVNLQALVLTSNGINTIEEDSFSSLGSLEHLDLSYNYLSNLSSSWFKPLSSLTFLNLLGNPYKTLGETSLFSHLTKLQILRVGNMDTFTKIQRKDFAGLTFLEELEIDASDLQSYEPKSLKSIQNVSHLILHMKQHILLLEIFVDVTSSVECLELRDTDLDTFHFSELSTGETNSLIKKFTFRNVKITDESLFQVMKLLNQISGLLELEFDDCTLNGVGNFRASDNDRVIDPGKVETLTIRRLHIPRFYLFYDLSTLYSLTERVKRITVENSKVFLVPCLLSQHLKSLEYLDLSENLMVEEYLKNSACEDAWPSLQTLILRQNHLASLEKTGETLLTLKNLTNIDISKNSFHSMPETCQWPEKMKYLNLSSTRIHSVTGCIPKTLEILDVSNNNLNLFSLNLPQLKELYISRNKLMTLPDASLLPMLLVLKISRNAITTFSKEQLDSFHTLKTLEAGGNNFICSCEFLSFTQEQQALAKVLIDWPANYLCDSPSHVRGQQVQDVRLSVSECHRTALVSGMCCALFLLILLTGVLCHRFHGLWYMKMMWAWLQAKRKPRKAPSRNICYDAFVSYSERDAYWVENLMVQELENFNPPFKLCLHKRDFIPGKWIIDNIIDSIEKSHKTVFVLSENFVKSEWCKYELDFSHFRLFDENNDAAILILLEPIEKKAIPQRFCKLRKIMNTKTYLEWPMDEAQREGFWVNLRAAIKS

| Compound | ability to activate endogenous TLR2 and TLR7 in RAW-Blue Cells [1] | ability to activate mTLR7 [2] | Mean Diameter ([3]; complexes with pDNA 3:24 (w:w), dynamic light scattering) | PDI ([3]; polydispersity index of complexes with pDNA 3:24 (w:w)) | ability to activate hTLR2 [4] | ability to complex pDNA (retardation of pDNA migration in agarose gel) [5] | ability to activate hTLR7 [6] | mice still alive (survival) [7] [%] |
| --- | --- | --- | --- | --- | --- | --- | --- | --- |
| CCCCCCCCCCCCCCCC(=O)OCC(CSC[C@H](N)C(=O)NCCCC[C@H](NC(=O)CNC(=O)c1ccc(Cn2c(O)nc3c(N)nc(NCCCC)nc32)cc1)C(=O)NCCCNCCCCNCCCN)OC(=O)CCCCCCCCCCCCCCC (stereo partly drawn) [CL487, (6R,13S)-6,27-diamino-13-(2-(4-((6-amino-2-(butylamino)-8-hydroxy-9H-purin-9-yl)methyl)benzamido)acetamido)-7,14-dioxo-4-thia-8,15,19,24-tetraazaheptacosane-1,2-diyl dipalmitate] | activate endogenous TLR2 and TLR7 | activate mTLR7 | 165.6 nm and 160.0 nm and 148.1 nm | 0.255 and 0.241 and 0.23 | activate hTLR2 | inability to migrate through an agarose gel | activate hTLR7 | – |
| dipalmitoyl-S-glyceryl cysteine-serine-(lysine)4 [Pam2CSK4, reference compound] | – | – | – | – | – | – | – | 60 |
